According to patent US11773109B2, “Composition for hardening soft tissue” (The Catholic University of Korea Industry—Academic …, priority 2016, dated 2023):
“Also recorded” adds a separate entry of the source.

How the values were obtained:
pancreas of mice [1] = test: Tension (suture-holding capacity) of the mouse pancreas after treatment, Newton dynamometer; assay type: in vivo; details: for response vs control in vivo at 1000 µM: fold of control, read-out: increase of the tension of the pancreas compared to the control
Protocol: Specifically, it means a force which occurs in an organ in response to an external force exerted by stretching or pulling action. The measurement of the tension according to the present invention is performed using a dynamometer. More specifically, the tension is determined by measuring suture-holding capacity using a Newton dynamometer. At this time, the tension is calculated by adding the weight of the tissue.
(§1) More specifically, three mice were treated with 1 mM of each of the antibiotics shown above, and three mice were treated with phosphate buffered saline (PBS) as a control.
(2) Measurement of Tensile
The tension of the pancreas was measured using a dynamometer. Specifically, a pancreatic fragment having a size of 1×1×1.5 cm was prepared, and then silk 4-0 suture was passed through the tissue to form a knob, and suture-holding capacity was measured using a Newton dynamometer. At this time, the tension was calculated by adding the weight of the tissue.

pancreas of mice [2] = test: Hardness (elastic modulus) of the mouse pancreas after treatment, hardness meter (Venustron); assay type: in vivo
Protocol: The measurement of the hardness according to the present invention is performed using a hardness meter, and measurement of the hardness of the pancreas is performed by measuring elastic modulus (EM) based on the Hooke's law and the Hertz's contact stress theory. The EM is a measure of the stiffness of an elastic material, and is expressed as the ratio of “the stress along the axis” and “the total strain along the axis within the range of the stress” by the Hooke's law.
as §1
(1) Measurement of Hardness
In order to measure the resistance of the pancreas using a hardness meter, the elastic modulus (EM) of the dissected pancreas was measured using Venustron (Axiom, Koriyama, Japan) based on the Hooke's law and the Hertz's contract stress theory, and the resistance of the pancreas was calculated using the following equation: […]
(F, force; v, Poisson's ratio; t, variant of compression; r, the diameter of a rigid spherical probe that presses an object vertically)

[3] = mouse pancreas treated with 1 mM of compound, compared to control (PBS / untreated), result in words
[4] = mouse pancreas treated with 1 mM of compound

Compound | change in the tension of the pancreas compared to the control (pancreas of mice [1]; [3]) | change in the hardness of the pancreas compared to the control (pancreas of mice [2]; [3]) | also measured
CC1(C)S[C@@H]2[C@H](NC(=O)Cc3ccccc3)C(=O)N2[C@H]1C(=O)O.[K+] [KRM-60027, Potassium (2S,5R,6R)-3,3-dimethyl-7-oxo-6-(2-phenylacetamido)-4-thia-1-azabicyclo[3.2.0]heptane-2-carboxylate, reference compound] | significantly increasing the tension; also recorded: had the effects of increasing the tension and hardness; also recorded: increased the tension of the pancreas to a significant level; also recorded: excellent effect on an increase in the tension; also recorded: significant increase in the tension |  | 
C=CCOC(=O)[C@@H]1N2C(=O)[C@@H](NC(=O)Cc3ccccc3)[C@H]2SC1(C)C [KRM-60028, Allyl (2S,5R,6R)-3,3-dimethyl-7-oxo-6-(2-phenylacetamido)-4-thia-1-azabicyclo[3.2.0]heptane-2-carboxylate] | both the hardness and tension of the pancreas increased | both the hardness and tension of the pancreas increased | 
CC1(C)S[C@@H]2[C@H](NC(=O)Cc3ccccc3)C(=O)N2[C@H]1C(=O)OCC1CCCCC1 [KRM-60029, Cyclohexylmethyl (2S,5R,6R)-3,3-dimethyl-7-oxo-6-(2-phenylacetamido)-4-thia-1-azabicyclo[3.2.0]heptane-2-carboxylate] | both the hardness and tension of the pancreas increased | both the hardness and tension of the pancreas increased | 
CC1(C)S[C@@H]2[C@H](NC(=O)Cc3ccccc3)C(=O)N2[C@H]1C(=O)OCCCC#N [KRM-60030, 3-cyanopropyl (2S,5R,6R)-3,3-dimethyl-7-oxo-6-(2-phenylacetamido)-4-thia-1-azabicyclo[3.2.0]heptane-2-carboxylate] | both the hardness and tension of the pancreas increased | both the hardness and tension of the pancreas increased | response vs control in vivo at 1000 µM (pancreas of mice [1]; [4]): 200%; increase of the hardness of the pancreas compared to the control (pancreas of mice [2]; mouse pancreas treated with 1 mM of compound, fold of control): 1.5 times
CC1(C)S[C@@H]2[C@H](NC(=O)[C@H](N)c3ccccc3)C(=O)N2[C@H]1C(=O)[O-].[Na+] [KRM-60036, Sodium (2S,5R,6R)-6-((R)-2-amino-2-phenylacetamido)-3,3-dimethyl-7-oxo-4-thia-1-azabicyclo[3.2.0]heptane-2-carboxylate, reference compound] | had the effects of increasing the tension and hardness | significantly increased the hardness; also recorded: had the effects of increasing the tension and hardness; also recorded: excellent effect on an increase in the hardness | 
CC(C)(S)[C@@H](N)C(=O)O [KRM-60037, (S)-2-amino-3-mercapto-3-methylbutanoic acid, reference compound] | had the effects of increasing the tension and hardness | had the effects of increasing the tension and hardness | response vs control in vivo at 1000 µM (pancreas of mice [1]; [4]): 150%
Oc1cccc2cccnc12 [KRM-60042, 8-hydroxyquinoline, reference compound] |  |  | change in the tension of the pancreas compared to the control (pancreas of mice [1]; mouse, in vivo): significantly increases both the hardness and tension; also recorded: had the effects of increasing the tension and hardness; also recorded: increased both the hardness and tension of the pancreas to high levels; also recorded: excellent effects on increases in both the hardness and tension; change in the hardness of the pancreas compared to the control (pancreas of mice [2]; mouse, in vivo): significantly increases both the hardness and tension; also recorded: had the effects of increasing the tension and hardness; also recorded: increased both the hardness and tension of the pancreas to high levels; also recorded: excellent effects on increases in both the hardness and tension
CC(=O)N1CCN(c2ccc(OC[C@H]3CO[C@](Cn4ccnc4)(c4ccc(Cl)cc4Cl)O3)cc2)CC1 [KRM-60049, 1-(4-(4-(((2R,4S)-2-((1H-imidazol-1-yl)methyl)-2-(2,4-dichlorophenyl)-1,3-dioxolan-4-yl)methoxy)phenyl)piperazin-1-yl)ethanone, reference compound] | had the effects of increasing the tension and hardness; also recorded: increased both the hardness and tension of the pancreas to high levels | had the effects of increasing the tension and hardness; also recorded: increased both the hardness and tension of the pancreas to high levels | 
CC(C)(C)OC(=O)CCOC(=O)[C@@H]1N2C(=O)[C@@H](NC(=O)Cc3ccccc3)[C@H]2SC1(C)C [KRM-60077, 3-(tert-butoxy)-3-oxopropyl (2S,5R,6R)-3,3-dimethyl-7-oxo-6-(2-phenylacetamido)-4-thia-1-azabicyclo[3.2.0]heptane-2-carboxylate] | increased both the hardness and tension of the pancreas to significant levels | increased both the hardness and tension of the pancreas to significant levels | 
CC(C)COC(=O)[C@@H]1N2C(=O)[C@@H](NC(=O)Cc3ccccc3)[C@H]2SC1(C)C [KRM-60078, Isobutyl (2S,5R,6R)-3,3-dimethyl-7-oxo-6-(2-phenylacetamido)-4-thia-1-azabicyclo[3.2.0]heptane-2-carboxylate] | increased both the hardness and tension of the pancreas to significant levels | increased both the hardness and tension of the pancreas to significant levels | 
CCOCCOCCOC(=O)[C@@H]1N2C(=O)[C@@H](NC(=O)Cc3ccccc3)[C@H]2SC1(C)C [KRM-60080, 2-(2-ethoxyethoxy)ethyl (2S,5R,6R)-3,3-dimethyl-7-oxo-6-(2-phenylacetamido)-4-thia-1-azabicyclo[3.2.0]heptane-2-carboxylate] | increased both the hardness and tension of the pancreas to significant levels | increased both the hardness and tension of the pancreas to significant levels | 
CC(=O)OCC1=C(C(=O)O)N2C(=O)[C@@H](N)[C@H]2SC1 [KRM-60081, (6R,7R)-3-(acetoxymethyl)-7-amino-8-oxo-5-thia-1-azabicyclo[4.2.0]oct-2-ene-2-carboxylic acid] | increased both the hardness and tension of the pancreas to significant levels | increased both the hardness and tension of the pancreas to significant levels | 
CCn1cc(C(=O)O)c(=O)c2cnc(N3CCNCC3)nc21 [KRM-60082, 8-ethyl-5-oxo-2-(piperazin-1-yl)-5,8-dihydropyrido[2,3-d]pyrimidine-6-carboxylic acid] | increased both the hardness and tension of the pancreas to significant levels | increased both the hardness and tension of the pancreas to significant levels | 
COc1cc(Cc2cnc(N)nc2N)cc(OC)c1OC [KRM-60088, 5-(3,4,5-trimethoxybenzyl)pyrimidine-2,4-diamine] | increased both the hardness and tension of the pancreas to significant levels | increased both the hardness and tension of the pancreas to significant levels | 
Oc1cc2ccccc2cn1 [KRP-00010, 3-hydroxyisoquinoline] |  |  | response vs control in vivo at 1000 µM (pancreas of mice [1]; [4]): ~240%
